pIC50: −log10 of the molar value.
Tests used:
[1] = tested on: asymmetric di-methyl PABP1 in RKO cells; assay: RKO methylation assay, In Cell Western (ICW) for asymmetric di-methyl PABP1; format: cell-based; conditions: Homo sapiens, RKO, Cellular potencies, ICW PABP1me2a
In short: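 RKO cells treated with compound for 48 h at 37 °C, then fixed, permeabilized and immunostained for asymmetric di-methyl PABP1, with DRAQ5 as DNA stain. Infrared 700/800 nm signal ratio normalized to DMSO and 20 μM reference-compound controls; IC50 from triplicate wells.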

human CARM1 (PRMT4) = human CARM1 (PRMT4) (Homo sapiens (Human), UniProt Q86X55); assay: CARM1 enzyme assay on peptide substrate (3H-SAM Flashplate); conditions: Biochemical potencies, read-out: Biochem IC50
Sequence of human CARM1 (PRMT4) (Q86X55 other isoform, or with tags, fused parts or gaps isoform Q86X55-1): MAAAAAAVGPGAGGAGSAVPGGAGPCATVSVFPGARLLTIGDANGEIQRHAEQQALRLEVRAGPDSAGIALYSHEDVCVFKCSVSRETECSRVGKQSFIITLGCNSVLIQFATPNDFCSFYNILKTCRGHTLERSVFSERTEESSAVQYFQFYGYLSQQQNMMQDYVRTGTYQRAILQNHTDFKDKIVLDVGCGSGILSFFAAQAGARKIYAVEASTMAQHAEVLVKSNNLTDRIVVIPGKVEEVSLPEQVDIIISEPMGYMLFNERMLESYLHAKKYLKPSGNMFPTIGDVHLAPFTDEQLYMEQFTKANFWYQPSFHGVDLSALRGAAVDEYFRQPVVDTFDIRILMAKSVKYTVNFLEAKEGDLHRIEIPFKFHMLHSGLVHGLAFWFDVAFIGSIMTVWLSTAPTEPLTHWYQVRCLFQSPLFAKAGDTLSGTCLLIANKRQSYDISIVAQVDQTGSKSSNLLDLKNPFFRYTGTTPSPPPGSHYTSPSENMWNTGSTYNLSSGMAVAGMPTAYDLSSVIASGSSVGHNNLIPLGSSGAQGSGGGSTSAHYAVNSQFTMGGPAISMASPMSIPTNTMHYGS

pIC50 [1] | pIC50 (human CARM1 (PRMT4)) | Compound
4.70 to 5.00 | 5.52 to 6.00 | CCN(c1nc(-c2cccc(OCC(O)CNC)c2)nc(N2CCOCC2)c1C)[C@@H]1CCOC1 (stereo partly shown) [Example 375-1a]
4.70 to 5.00 | 5.52 to 6.00 | CCN(c1nc(-c2cccc(OCC(O)CNC)c2)nc(NC2CCOCC2)c1C)C1CCOCC1 (stereo not shown) [Example 606-1a]
4.70 to 5.00 | 6.00 to 7.00 | CNCC(O)COc1cccc(-c2nc(N[C@H]3CO[C@H]4OCC[C@H]43)c(C)c(N3CCOCC3)n2)c1 (stereo partly shown) [Example 374-1a]
4.70 to 5.00 | 5.00 to 5.52 | CNCC(O)COc1cccc(-c2nc(N[C@@H]3CCOC3)c(C)c(N3CCC(OCCOC)CC3)n2)c1 (stereo partly shown) [Example 386-1a]
4.70 to 5.00 | 5.00 to 5.52 | CNCC(O)COc1cccc(-c2nc(N[C@@H]3CCOC3)c(C)c(-c3cccnc3N)n2)c1 (stereo partly shown) [Example 416-1a]
4.70 to 5.00 | 6.00 to 7.00 | CNCC(O)COc1cccc(-c2nc(N(C)c3cnc(C(F)(F)F)nc3)cc(N(C)C3CCOCC3)n2)c1 (stereo not shown) [Example 587-1a]
4.70 to 5.00 | 5.52 to 6.00 | CNCC(O)COc1cccc(-c2nc(N[C@H]3C[C@@H](C(=O)O)C3)c(C)c(-c3c(C)noc3C)n2)c1 (stereo partly shown) [Example 223-1a]
4.70 to 5.00 | 6.00 to 7.00 | CNCC(O)COc1cccc(-c2nc(N[C@@H]3CCOC3)cc(N3CCOCC3)n2)c1 (stereo partly shown) [Example 387-1a]
4.70 to 5.00 | 6.00 to 7.00 | CNCC(O)COc1cccc(-c2nc(N[C@H]3CCOC3)c(C)c(-c3ccncc3)n2)c1 (stereo partly shown) [Example 333-1a]
≤ 4.70 | 5.52 to 6.00 | CNCC(O)COc1cccc(-c2nc(N[C@@H]3CC[C@H](C(=O)N4CCOCC4)C3)c(C)c(N3CCOCC3)n2)c1 (stereo partly shown) [Example 681-1a]
≤ 4.70 | 6.00 to 7.00 | CNCC(O)COc1cccc(-c2nc(NCCOC)cc(C3=CCCC3)n2)c1 (stereo not shown) [Example 667-1a]
4.70 to 5.00 | 6.00 to 7.00 | CNCC(O)COc1cccc(-c2nc(NC3CCOC3)c(C)c(N3CC[C@H](S(C)(=O)=O)C3)n2)c1 (stereo partly shown) [Example 431-1a]
4.70 to 5.00 | 6.00 to 7.00 | CNCC(O)COc1cccc(-c2nccc(-c3c(C)noc3C)n2)c1 (stereo not shown) [Example 2-1a]
4.70 to 5.00 | 6.00 to 7.00 | CNCC(O)COc1cccc(-c2nc(N3CCN(CCF)CC3)cc(N(C)C3CCOCC3)n2)c1 (stereo not shown) [Example 596-1a]
4.70 to 5.00 | 6.00 to 7.00 | CNCC(O)COc1ccc(C)c(-c2nc(NC3CCOCC3)c(C)c(-c3c(C)noc3C)n2)c1 (stereo not shown) [Example 123-3]
4.70 to 5.00 | 6.00 to 7.00 | CNCC(O)COc1cc(-c2nc(N(C)C3CCOCC3)c(C)c(-n3cccn3)n2)cc(-n2cccn2)c1 (stereo not shown) [Example 598-1a]
4.70 to 5.00 | 6.00 to 7.00 | CNCC(O)COc1cccc(-c2nc(N[C@@H]3CCOC3)c(C)c(N3CCC[C@H]3COC)n2)c1 (stereo partly shown) [Example 395-1a]
4.70 to 5.00 | 6.00 to 7.00 | CNCC(O)COc1cccc(-c2nc(N3C[C@@H]4CCCN(C(C)=O)[C@@H]4C3)cc(N(C)C3CCOCC3)n2)c1 (stereo partly shown) [Example 539-1a]
≤ 4.70 | 6.00 to 7.00 | CNCC(O)COc1cccc(-c2nc(NC3CCOCC3)c(C)c(-c3c(C)nn(C)c3C)n2)c1 (stereo not shown) [Example 678-1a]
≤ 4.70 | 5.52 to 6.00 | CNCC(O)COc1cccc(-c2nc(NCCCN3CCCCCC3=O)cc(N3CCOCC3)n2)c1 (stereo not shown) [Example 685-1a]
4.70 to 5.00 | 6.00 to 7.00 | CNCC(O)COc1cccc(-c2nc(C(=O)NC)cc(N(C)C3CCOCC3)n2)c1 (stereo not shown) [Example 554-1a]
≤ 4.70 | 6.00 to 7.00 | CNCC(O)COc1cccc(-c2nc(C3=CCCC3)cc(C(CCOC)CCOC)n2)c1 (stereo not shown) [Example 651-1a]

pIC50 [1] | pIC50 (human CARM1 (PRMT4)) | Compound
≤ 4.70 | 6.00 to 7.00 | CCCCOc1nc(-c2ccc(F)c(OCC(O)CNC)c2)nc(-c2c(C)noc2C)c1C (stereo not shown) [Example 50-3]
≤ 4.70 | 5.52 to 6.00 | CNCC(O)COc1cccc(-c2nc(N[C@@H]3CC[C@@H](O)C3)c(C)c(N3CCOCC3)n2)c1 (stereo partly shown) [Example 679-1a]
4.70 to 5.00 | 6.00 to 7.00 | CNCC(O)COc1cccc(-c2nc(N3CCOCC3)cc(N(C3CCOCC3)C3CC3)n2)c1 (stereo not shown) [Example 601-1a]
4.70 to 5.00 | 6.00 to 7.00 | CNCC(O)COc1cccc(-c2nc(N[C@@H]3CCOC3)c(C)c(-c3ccnc(N(C)C)c3)n2)c1 (stereo partly shown) [Example 389-1a]
4.70 to 5.00 | 6.00 to 7.00 | CNCC(O)COc1cccc(-c2nc(N[C@@H]3CCOC3)c(C)c(-c3cnn(CC(F)(F)F)c3)n2)c1 (stereo partly shown) [Example 414-1a]
≤ 4.70 | 6.00 to 7.00 | CNCC(O)COc1cccc(-c2nc(NC3CCOCC3)cc(-c3ccc(C(F)(F)F)nc3)n2)c1 (stereo not shown) [Example 654-1a]
≤ 4.70 | 5.52 to 6.00 | CNCC(O)COc1cccc(-c2nc(NCCCN3CCCC3=O)cc(-c3cnn(CC(C)C)c3)n2)c1 (stereo not shown) [Example 635-1a]
4.70 to 5.00 | 6.00 to 7.00 | CNCC(O)COc1cccc(-c2nc(N[C@@H]3CCOC3)c(C)c(N3CCN(C(C)=O)CC34CC4)n2)c1 (stereo partly shown) [Example 438-1a]
≤ 4.70 | 6.00 to 7.00 | CNCC(O)COc1cccc(-c2nc(NCC3CCNCC3)cc(-c3ccncc3)n2)c1 (stereo not shown) [Example 662-1a]
4.70 to 5.00 | 5.00 to 5.52 | CNCC(O)COc1cccc(-c2nc(NC3CCOCC3)c(C)c(N(C3CCOCC3)C3CC3)n2)c1 (stereo not shown) [Example 607-1a]
4.70 to 5.00 | 5.00 to 5.52 | CNCC(O)COc1cccc(-c2nc(NC3(C(=O)NC)CCOC3)c(C)c(-c3c(C)noc3C)n2)c1 (stereo not shown) [Example 113-1a]
4.70 to 5.00 | 6.00 to 7.00 | CNCC(O)COc1cccc(-c2nc(N[C@@H]3CCOC3)c(C)c(-c3ccnc(-n4ccnc4)c3)n2)c1 (stereo partly shown) [Example 405-1a]
4.70 to 5.00 | 6.00 to 7.00 | CNCC(O)COc1cccc(-c2nc(N[C@@H]3CCOC3)c(C3CC3)c(N3CCOCC3)n2)c1 (stereo partly shown) [Example 413-1a]
≤ 4.70 | 6.00 to 7.00 | CNCC(O)COc1ccc(C#N)c(-c2nc(NC3CCN(C(=O)OC)CC3)c(C)c(-c3c(C)noc3C)n2)c1 (stereo not shown) [Example 165-3]
4.70 to 5.00 | 5.52 to 6.00 | CNCC(O)COc1cccc(-c2nc(Nc3c(C)nn(C)c3C)cc(-c3c(C)noc3C)n2)c1 (stereo not shown) [Example 122-1a]
4.70 to 5.00 | 6.00 to 7.00 | CNCC(O)COc1cccc(-c2nc(N[C@@H]3CCOC3)c(C)c(-c3cc[nH]n3)n2)c1 (stereo partly shown) [Example 349-1a]
5.00 to 5.30 | 6.00 to 7.00 | CNCC(O)COc1cccc(-c2nc(NC3CCOC3)c(C)c(N3CCC4(CCO4)CC3)n2)c1 (stereo not shown) [Example 400-1a]
4.70 to 5.00 | 6.00 to 7.00 | CNCC(O)COc1cc(Cl)cc(-c2nc(N[C@@H]3CCOC3)c(C)c(C(=O)NCC3CCOCC3)n2)c1 (stereo partly shown) [Example 336-1a]
4.70 to 5.00 | 6.00 to 7.00 | CNCC(O)COc1cccc(-c2nc(Nc3c(C)nn(C)c3C)cc(N(C)C3CCOCC3)n2)c1 (stereo not shown) [Example 555-1a]
4.70 to 5.00 | 6.00 to 7.00 | CNCC(O)COc1cccc(-c2nc(Nc3ncc(OC)cn3)cc(N(C)C3CCOCC3)n2)c1 (stereo not shown) [Example 551-1a]
5.00 to 5.30 | 6.00 to 7.00 | CNCC(O)COc1cccc(-c2nc(C(=O)NC3CCOCC3)cc(N(C)C3CCOCC3)n2)c1 (stereo not shown) [Example 530-1a]
4.70 to 5.00 | 5.52 to 6.00 | CNCC(O)COc1cccc(-c2nc(NC3CCOC3)c(C)c(C(=O)NC3CCOCC3)n2)c1 (stereo not shown) [Example 383-1a]

Source: patent US10633389B2, “CARM1 inhibitors and uses thereof” (Epizyme, Inc., priority 2013, dated 2020)
